The values below come from patent US5272147A, “Pyrazolopyrimidinone antianginal agents” (Pfizer Inc., priority 1991, dated 1993).

What all share (assay type): biochemical
Experiment [1] relates to Ca/CAM-independent cGMP PDE. Kind of experiment: Phosphodiesterase activity: inhibition of calcium/calmodulin (Ca/CAM)-independent cGMP PDE from rabbit platelets. To be noted: between Ca/CAM-independent cGMP PDE and cGMP-inhibited cAMP PDE (IC50 cAMP / IC50 cGMP). The procedure: (§1) Compound affinities for cGMP and cAMP PDEs are assessed by determination of their IC50 value (the concentration of inhibitor required for 50% inhibition of enzyme activity). The PDE enzymes are isolated from rabbit platelets and rat kidney, essentially by the method of W. J. Thompson et al. (Biochem., 1971, 10, 311). The calcium/calmodulin (Ca/CAM)-independentcGMP PDE and the cGMP-inhibited cAMP PDE enzymes are obtained from rabbit platelets whilst, of the four major PDE enzymes of the rat kidney, the Ca/CAM-dependent cGMP PDE (fraction I) is isolated. Assays are performed using a modification of the "batch" method of W. J. Thompson and M. M. Appleman (Biochem., 1979, 18, 5228).

In experiment [2] the target is T1, Ca/CAM-independent cGMP PDE (Oryctolagus cuniculus, UniProt G1SX67).
T1 construct: The PDE enzymes are isolated from rabbit platelets and rat kidney; from tissue; host or cells: rabbit platelets
The experiment is described as above. To be noted: in vitro; Ca/CAM-independent cGMP PDE from rabbit platelets. The method, then:
as §1

Another experiment has as its target T2, cGMP-inhibited cAMP PDE (Oryctolagus cuniculus, UniProt G1ST54).
T2 construct: The PDE enzymes are isolated from rabbit platelets and rat kidney; from tissue; host or cells: rabbit platelets
T2 sequence (G1ST54 1-1128): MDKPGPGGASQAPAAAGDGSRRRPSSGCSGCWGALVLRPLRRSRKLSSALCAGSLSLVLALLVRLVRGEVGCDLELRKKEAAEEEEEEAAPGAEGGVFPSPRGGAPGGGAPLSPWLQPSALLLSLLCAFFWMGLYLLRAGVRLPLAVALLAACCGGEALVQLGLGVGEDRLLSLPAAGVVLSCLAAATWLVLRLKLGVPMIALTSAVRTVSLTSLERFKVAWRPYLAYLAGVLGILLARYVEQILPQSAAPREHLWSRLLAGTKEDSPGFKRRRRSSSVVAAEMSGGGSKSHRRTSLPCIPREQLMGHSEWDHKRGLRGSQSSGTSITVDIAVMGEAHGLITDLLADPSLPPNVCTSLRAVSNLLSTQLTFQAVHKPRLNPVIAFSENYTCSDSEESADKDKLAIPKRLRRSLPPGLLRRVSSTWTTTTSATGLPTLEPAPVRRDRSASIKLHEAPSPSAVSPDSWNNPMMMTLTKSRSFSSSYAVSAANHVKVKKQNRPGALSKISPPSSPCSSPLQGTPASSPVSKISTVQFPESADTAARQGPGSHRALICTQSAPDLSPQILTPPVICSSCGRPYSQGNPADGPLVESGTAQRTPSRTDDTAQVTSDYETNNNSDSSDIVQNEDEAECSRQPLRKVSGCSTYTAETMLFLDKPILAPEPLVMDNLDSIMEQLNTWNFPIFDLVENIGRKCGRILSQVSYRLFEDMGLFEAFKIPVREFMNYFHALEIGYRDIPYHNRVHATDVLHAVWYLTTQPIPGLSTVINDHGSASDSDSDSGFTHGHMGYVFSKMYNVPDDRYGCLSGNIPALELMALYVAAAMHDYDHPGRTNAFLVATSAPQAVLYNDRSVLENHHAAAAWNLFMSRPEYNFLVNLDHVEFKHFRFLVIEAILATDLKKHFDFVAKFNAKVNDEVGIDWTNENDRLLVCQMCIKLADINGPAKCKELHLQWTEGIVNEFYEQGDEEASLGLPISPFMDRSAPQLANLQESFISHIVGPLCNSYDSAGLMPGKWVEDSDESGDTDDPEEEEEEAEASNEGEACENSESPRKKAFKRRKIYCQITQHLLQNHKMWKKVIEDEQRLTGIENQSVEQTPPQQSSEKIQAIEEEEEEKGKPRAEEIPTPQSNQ
Kind of experiment: Phosphodiesterase activity: inhibition of cGMP-inhibited cAMP PDE from rabbit platelets. To be noted: in vitro. The procedure: as §1

With `CCCc1nn(C)c2c(=O)[nH]c(-c3cc(-c4nccn4C)ccc3OCC)nc12` [Example 32, 5-[2-ethoxy-5-(1-methyl-2-imidazolyl)phenyl]-1methyl-3-n-propyl-1,6-dihydro-7H-pyrazolo[4,3-d]pyrimidin-7-one], the “SELECTIVITY RATIO” value in experiment [1] is 27,142. For the same compound, the IC50 in experiment [2] is 0.0014 µM; at cGMP-inhibited cAMP PDE, 38 µM.
With `CCCc1nn(C)c2c(=O)[nH]c(-c3cc(C(=O)CN4CCOCC4)ccc3OCC)nc12` [Example 4, 5-(2-ethoxy-5-morpholinoacetylphenyl)-1-methyl-3-n-propyl-1,6dihydro-7H-pyrazolo[4,3-d]pyrimidin-7-one], the “SELECTIVITY RATIO” value in experiment [1] is on record as 35,000. For the same compound, the results for the IC50 (in experiment [2]; at cGMP-inhibited cAMP PDE) were 0.0018 µM and 63 µM, respectively.
`CCCOc1ccc(COCCO)cc1-c1nc2c(CCC)nn(C)c2c(=O)[nH]1` [Example 39, 5-[5-(2-Hydroxyethoxymethyl)-2-n-propoxyphenyl]-1-methyl-3-n-propyl-1,6-dihydro-7H-pyrazolo[4,3-d]-pyrimidin-7-one]: the “SELECTIVITY RATIO” value in experiment [1] is listed as 10,188. For the same compound, the results for the IC50 (in experiment [2]; on cGMP-inhibited cAMP PDE) were 0.0053 µM and 54 µM, respectively.
On the same counts, the results for `CCCc1nn(C)c2c(=O)[nH]c(-c3cc(C(O)CN4CCOCC4)ccc3OCC)nc12` (centres unmarked) [Example 11] are 11,632, 0.0049 µM and 57 µM.
As to `CCCc1nn(C)c2c(=O)[nH]c(-c3cc(C(=O)O)ccc3OCC)nc12` [Example 29, 4-Ethoxy-3-(-1-methyl-3-n-propyl-1,6-dihydro-7H-pyrazolo[4,3-d]-pyrimidin-5-yl)benzoic acid], the “SELECTIVITY RATIO” value in experiment [1] is reported as 15,272. Besides, the IC50 in experiment [2] was determined as 0.0055 µM; against cGMP-inhibited cAMP PDE, 84 µM.
For `CCCOc1ccc(C(=O)CN2CCOCC2)cc1-c1nc2c(CCC)nn(C)c2c(=O)[nH]1` [Example 14, 1-Methyl-5-(5-morpholinoacetyl-2-n-propoxyphenyl)-3-n-propyl-1,6-dihydro-7H-pyrazolo[4,3-d]pyrimidin-7-one] the same measures were 57,000, 0.001 µM and 57 µM.
On the same counts, the results for `CCCc1nn(C)c2c(=O)[nH]c(-c3cc(-n4ccnc4)ccc3OCC)nc12` [Example 31, 5-[2-Ethoxy-5-(1-imidazolyl)phenyl]-1-methyl-3-n-propyl-1,6-dihydro-7H-pyrazolo[4,3-d]-pyrimidin-7-one] are 16,470, 0.0034 µM and 56 µM.
On to `CCCOc1ccc(C(=O)CN2CCN(C)CC2)cc1-c1nc2c(CCC)nn(C)c2c(=O)[nH]1` [Example 15, 1-Methyl-5-[5-(4-methyl-1-piperazinylacetyl)-2n-propoxyphenyl]-3-n-propyl-1,6-dihydro-7H-pyrazolo [4,3-d]pyrimidin-7-one], for which, in experiment [1], the “SELECTIVITY RATIO” value is 22,058. Moreover, the IC50 was 0.0034 µM in experiment [2] and 75 µM on cGMP-inhibited cAMP PDE.
With `CCCc1nn(C)c2c(=O)[nH]c(-c3cc(C(=O)N4CCN(C)CC4)ccc3OCC)nc12` [Example 30, 5-[2-Ethoxy-5-(4-methylpiperazinylcarbonyl)phenyl]-1-methyl-3-n-propyl-1,6-dihydro-7H-pyrazolo[4,3-d]-pyrimidin-7-one], the IC50 in experiment [2] was determined as 0.0014 µM; against cGMP-inhibited cAMP PDE it was 58 µM.
In the case of `CCCc1nn(C)c2c(=O)[nH]c(-c3cc(/C=C/C(=O)N(C)C)ccc3OCC)nc12` [Example 25, (E)-4-Ethoxy-3(1-methyl-3-n-propyl-1,6-dihydro-7H-pyrazolo[4,3-d]-pyrimidin-5-yl)cinnamic acid dimethylamide], the “SELECTIVITY RATIO” value in experiment [1] was 24,705. Moreover, the IC50 in experiment [2] stood at 0.0034 µM; against cGMP-inhibited cAMP PDE, 84 µM.
On the same counts, the results for `CCCOc1ccc(C(O)CN2CCOCC2)cc1-c1nc2c(CCC)nn(C)c2c(=O)[nH]1` (centres unmarked) [Example 16, 5-[5-(1-Hyroxy-2-morpholinoethyl)-2-n-propoxyphenyl]-1-methyl-3-n-propyl-1,6-dihydro-7H-pyrazolo[4,3-d]pyrimidin-7-one] are 14,324, 0.0037 µM and 53 µM.
For `CCCOc1ccc(/C=C/C(=O)O)cc1-c1nc2c(CCC)nn(C)c2c(=O)[nH]1` [Example 20, (E)-3-(1-Methyl-7-oxo-3-n-propyl-1,6-dihydro-7H-pyrazolo[4,3-d]-pyrimidin-5-yl)-4-n-propoxycinnamic acid] the same measures were 15,945, 0.0037 µM and 59 µM.
On the same counts, the results for `CCCc1nn(C)c2c(=O)[nH]c(-c3cc(C(=O)CN4CCN(C(C)=O)CC4)ccc3OCC)nc12` [Example 3, 5-[5-(4-acetyl-1-piperazinyl)acetyl-2-ethoxyphenyl]-1-methyl-3-n-propyl-1,6-dihydro-7H-pyrazolo[4,3-d]pyrimidin-7-one] are 39,090, 0.0022 µM and 86 µM.

What is called IC50 is the concentration that gives 50% inhibition.
